Measured values from ChEMBL document CHEMBL1140492, “Synthesis and inhibitory activity of 4-alkynyl and 4-alkenylquinazolines: identification of new scaffolds for potent EGFR tyrosine kinase inhibitors” (Bioorg Med Chem Lett, 2007).
pIC50: −log10 of the molar value.

Target: Epidermal growth factor receptor (Homo sapiens, UniProt P00533)
Assay: Inhibition of partially purified EGFR tyrosine kinase from human A431 cells

Chain of Epidermal growth factor receptor (P00533 whole entry): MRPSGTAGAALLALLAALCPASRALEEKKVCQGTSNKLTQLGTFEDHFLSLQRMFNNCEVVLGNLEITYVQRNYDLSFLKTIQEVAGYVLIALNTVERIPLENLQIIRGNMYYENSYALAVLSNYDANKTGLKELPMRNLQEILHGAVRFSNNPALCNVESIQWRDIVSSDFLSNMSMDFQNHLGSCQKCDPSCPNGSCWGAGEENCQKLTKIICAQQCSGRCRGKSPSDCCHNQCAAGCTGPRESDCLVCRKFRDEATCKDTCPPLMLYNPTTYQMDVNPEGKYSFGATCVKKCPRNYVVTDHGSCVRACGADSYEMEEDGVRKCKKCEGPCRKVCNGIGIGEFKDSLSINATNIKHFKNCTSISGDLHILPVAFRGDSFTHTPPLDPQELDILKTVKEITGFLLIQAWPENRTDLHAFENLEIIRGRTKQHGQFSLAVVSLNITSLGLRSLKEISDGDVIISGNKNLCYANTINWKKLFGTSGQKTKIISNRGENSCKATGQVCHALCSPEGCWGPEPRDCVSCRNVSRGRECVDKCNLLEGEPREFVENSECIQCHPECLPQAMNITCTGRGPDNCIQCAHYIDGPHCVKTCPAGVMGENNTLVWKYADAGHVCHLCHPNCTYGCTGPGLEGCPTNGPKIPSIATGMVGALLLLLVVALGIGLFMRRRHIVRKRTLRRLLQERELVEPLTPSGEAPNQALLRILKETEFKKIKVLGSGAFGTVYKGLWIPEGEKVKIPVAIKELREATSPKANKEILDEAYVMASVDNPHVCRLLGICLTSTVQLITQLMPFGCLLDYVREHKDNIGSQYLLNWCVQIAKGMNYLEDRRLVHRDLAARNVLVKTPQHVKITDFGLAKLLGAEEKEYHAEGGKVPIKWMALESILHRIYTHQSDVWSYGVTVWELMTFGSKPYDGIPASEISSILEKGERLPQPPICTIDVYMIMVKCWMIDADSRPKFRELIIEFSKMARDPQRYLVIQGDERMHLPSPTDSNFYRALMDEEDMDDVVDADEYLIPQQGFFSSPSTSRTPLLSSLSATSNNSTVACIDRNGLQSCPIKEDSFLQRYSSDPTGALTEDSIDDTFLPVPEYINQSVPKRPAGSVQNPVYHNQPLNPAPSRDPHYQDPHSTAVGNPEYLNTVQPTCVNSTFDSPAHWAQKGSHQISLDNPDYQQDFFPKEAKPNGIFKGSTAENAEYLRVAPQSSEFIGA

SMILES	pIC50
COc1cc2ncnc(C#Cc3ccccc3-c3ccccc3)c2cc1OC	7.59
CCOc1cc2ncnc(/C=C/c3ccccc3)c2cc1OCC	7.82
CCOc1cc2ncnc(/C=C/CCCc3ccccc3)c2cc1OCC	6.85
CCOc1cc2ncnc(C#Cc3[nH]ccc3-c3ccccc3)c2cc1OCC	8.00
CCOc1cc2ncnc(C#Cc3c[nH]nc3-c3ccc(F)cc3)c2cc1OCC	8.74
CCOc1cc2ncnc(C#C[C@](C)(Cc3ccccc3)N3CCC(C(=O)O)CC3)c2cc1OCC	6.18
COc1cc2ncnc(C#C[C@@](C)(Cc3ccccc3)N3CCC(C(=O)O)CC3)c2cc1OC	7.48
CCOc1cc2ncnc(/C=C/CCc3ccccc3)c2cc1OCC	8.30
CCOc1cc2ncnc(C#Cc3nccn3-c3ccccc3)c2cc1OCC	7.92
CCOc1cc2ncnc(C#C[C@@](C)(Cc3ccccc3)N3CCC(C(=O)O)CC3)c2cc1OCC	8.38
CCOc1cc2ncnc(C#CC(C)(Cc3ccccc3)N3CCC(C(=O)O)CC3)c2cc1OCC (racemic)	7.93

Next, values leading:

pIC50	SMILES
5.25	COc1cc2ncnc(C#Cc3ccccc3)c2cc1OC
7.85	COc1cc2ncnc(C#CCCc3ccccc3)c2cc1OC
7.82	COc1cc2ncnc(C#CCOc3ccccc3)c2cc1OC
7.10	COc1cc2ncnc(C#CC(C)(C)N(C)c3ccccc3)c2cc1OC
8.40	COc1cc2ncnc(/C=C/CCc3ccccc3)c2cc1OC
8.52	CCN(CC)[C@@](C)(C#Cc1ncnc2cc(OC)c(OC)cc12)Cc1ccccc1
5.14	CCN(CC)[C@@](C)(C#Cc1ncnc2cc(OC)c(OC)cc12)c1ccccc1
5.92	CCN(CC)[C@@](C)(C#Cc1ncnc2cc(OC)c(OC)cc12)CCc1ccccc1
6.70	CCN(CC)[C@@](C)(C#Cc1ncnc2cc(OC)c(OC)cc12)Cc1ccncc1
5.96	CCN(CC)[C@@](C)(C#Cc1ncnc2cc(OC)c(OC)cc12)CC1CCCCC1
6.89	CCN(CC)[C@@](C)(CCc1ncnc2cc(OC)c(OC)cc12)Cc1ccccc1
7.89	COc1cc2ncnc(C#CC(C)(C)Cc3ccccc3)c2cc1OC
